The conditions of series [1]: cited from earlier work.
The nature of series [2]: Surface tension by Kibron Delta-8 tensiometer (microtensiometry). As to conditions: for Surface Active: 24.1 ° C.

The structures appear in SMILES notation.

The values that follow come from patent US8987285B2, “Pharmaceutical compositions, dosage forms and new forms of the compound of formula (I), and methods of use thereof” (Portola Pharmaceuticals, Inc., priority 2010, dated 2015).

Take `CCN(CC)CCNC(=O)c1cc(Cl)c(N)cc1OC` [Metoclopramide]: the “pKa(s) B = Base” value in series [1] was “B 9.24”.
`CN(C)CCC=C1c2ccccc2CCc2ccccc21` [Amitriptyline]: the “pKa(s) B = Base” value in series [1] is recorded as “B 9.3”.
Regarding `CNc1cc2[nH]c(=O)n(-c3ccc(NC(=O)[N-]S(=O)(=O)c4ccc(Cl)s4)cc3)c(=O)c2cc1F.[K+]` [potassium salt of formula (I)], the CMC in series [2] (pH 6.0 phosphate buffer) was 0.1 mg/mL; in series [2] (pH 6.5 phosphate buffer), >1.7 mg/mL; in series [2] (pH 7.0 phosphate buffer), >2.7 mg/mL; in series [2] (pH 7.5 phosphate buffer) it was >4.0 mg/mL; in series [2] (pH 8.0 phosphate buffer) it was >3.5 mg/mL. The “Surface tension at CMC” value in series [2] (pH 6.0 phosphate buffer) is 62 mN/m; in series [2] (pH 6.5 phosphate buffer), 68 mN/m; in series [2] (pH 7.0 phosphate buffer) it was 65 mN/m; in series [2] (pH 7.5 phosphate buffer) it was 63 mN/m; in series [2] (pH 8.0 phosphate buffer), 63 mN/m. The “maximum surface pressure change” value in series [2] (pH6 phosphate buffer) was determined as 11 mN/m. Moreover, the “Surface Active” value in series [2] (pH 6.5 phosphate buffer), in series [2] (pH 7.0 phosphate buffer), in series [2] (pH 7.5 phosphate buffer) and in series [2] (pH 8.0 phosphate buffer) was “Yes” each time.
Turning to `O=C(O)c1cc(/N=N/c2ccc(S(=O)(=O)Nc3ccccn3)cc2)ccc1O` [Sulfasalazine], in series [1], the LogP is 3.61.
Regarding `O=C(CCCN1CCC(O)(c2ccc(Cl)cc2)CC1)c1ccc(F)cc1` [Haloperidol], in series [1], the “pKa(s) B = Base” value was “B 8.42”.
Take `Cc1cccc(Nc2ccccc2C(=O)O)c1C` [Mefenamic Acid]: the “pKa(s) A = acid” value in series [1] is on record as “A 4.221”.
Regarding `O=C1CN(/N=C/c2ccc([N+](=O)[O-])o2)C(=O)N1` [Nitrofurantoin], in series [1], the LogP is listed as −0.54 and the “pKa(s) A = acid” value was “A 7.05”.
Consider `Cc1ccnc(NS(=O)(=O)c2ccc(N)cc2)n1` [Sulfamerazine], for which, in series [1], the LogP is 0.15, the “pKa(s) A = acid” value is 6.81 and the “pKa(s) B = Base” value is listed as 2.22.
`Cc1ccc(Cl)c(Nc2ccccc2C(=O)O)c1Cl` [Meclofenamic Acid]: in series [1], the LogP was 5.9 and the “pKa(s) A = acid” value is “A 4.10”.
As to `NC(N)=Nc1nc(CSCCC(N)=NS(N)(=O)=O)cs1` [Famotidine], in series [1], the LogP was −0.81, the “pKa(s) A = acid” value is reported as 11.01 and the “pKa(s) B = Base” value is reported as 6.77.
Turning to `CC(C(=O)O)c1ccc2c(c1)[nH]c1ccc(Cl)cc12` (stereo not drawn) [Carprofen], in series [1], the LogP is recorded as 4.29 and the “pKa(s) A = acid” value was “A 4.247”.
Regarding `CCN(CC)Cc1cc(Nc2ccnc3cc(Cl)ccc23)ccc1O` [Amodiaquin], in series [1], the LogP is listed as 4.2 and the “pKa(s) A = acid” value is recorded as “A 11.49”.
For `CC(=O)Nc1ccc(O)cc1` [Paracetamol], the “pKa(s) A = acid” value in series [1] is recorded as “A 9.52”.
Take `CN(C)CCCN1c2ccccc2CCc2ccccc21` [Imipramine]: the “pKa(s) B = Base” value in series [1] is “B 9.54”.
With `CC(C)(C)NCC(O)COc1cccc2c1CC(O)C(O)C2` (stereo not drawn) [Nadolol], the “pKa(s) B = Base” value in series [1] is “B 9.696”.
Take `CNCCCC12CCC(c3ccccc31)c1ccccc12` [Maprotiline]: in series [1], the LogP was 4.85 and the “pKa(s) B = Base” value is reported as “B 10.33”.
Turning to `CCOC(=O)c1ccc(N)cc1` [Benzocaine], the “pKa(s) B = Base” value in series [1] was “B 2.39”.
For `NS(=O)(=O)c1cc2c(cc1C(F)(F)F)NC(Cc1ccccc1)NS2(=O)=O` (stereo not drawn) [Bendroflumethiazide], the LogP in series [1] was 1.95.
Consider `Cc1ccccc1C(OCCN(C)C)c1ccccc1` (stereo not drawn) [Orphenadrine], for which, in series [1], the LogP is 3.84 and the “pKa(s) B = Base” value is “B 9.037”.
For `COc1ccc([C@@H]2Sc3ccccc3N(CCN(C)C)C(=O)[C@@H]2OC(C)=O)cc1` [Diltiazem], the lipophilicity (LogP) in series [1] is given as 2.89.
For `CC1CCc2cc(F)cc3c(=O)c(C(=O)O)cn1c23` (stereo not drawn) [Flumequine], in series [1], the LogP is recorded as 1.72 and the “pKa(s) A = acid” value is reported as “A 6.37”.
For the compound `O=C(O)c1ccccc1Nc1cccc(C(F)(F)F)c1` [Flufenamic Acid], in series [1], the log partition coefficient (LogP) was 5.56 and the “pKa(s) A = acid” value is “A 3.968”.
As to `NC12CC3CC(CC(C3)C1)C2` [Amantadine], in series [1], the LogP is listed as 2.41 and the “pKa(s) B = Base” value is “B 10.48”.
As to `Nc1nc2ncc(CNc3ccc(C(=O)N[C@@H](CCC(=O)O)C(=O)O)cc3)nc2c(=O)[nH]1` [Folic Acid], in series [1], the LogP is recorded as 0.2 and the “pKa(s) B = Base” value is 2.33.
As to `CC(C)(C)c1ccc(C(O)CCCN2CCC(C(O)(c3ccccc3)c3ccccc3)CC2)cc1` (stereo not drawn) [Terfenadine], in series [1], the LogP was 5.42 and the “pKa(s) B = Base” value is “B 9.25”.
On to `CNCCC=C1c2ccccc2CCc2ccccc21` [Nortriptyline], for which the “pKa(s) B = Base” value in series [1] was “B 10.21”.
With `CNCCCN1c2ccccc2CCc2ccccc21` [Desipramine], the “pKa(s) B = Base” value in series [1] is “B 10.08”.
Consider `CCn1cc(C(=O)O)c(=O)c2cc(F)c(N3CCNCC3)cc21` [Norfloxacin], for which, in series [1], the LogP was −1.03, the “pKa(s) A = acid” value is on record as “A 6.324 B” and the “pKa(s) B = Base” value is 8.575.
As for `CC(C(=O)O)c1ccc(-c2ccccc2)c(F)c1` (stereo not drawn) [Flurbiprofen], the “pKa(s) A = acid” value in series [1] is reported as “A 4.01”.
On to `O=C(O)c1ccc2ccccc2c1` [2-naphthoic acid], for which, in series [1], the LogP was 3.28 and the “pKa(s) A = acid” value was “A 3.884”.
With `NS(=O)(=O)c1cc2c(cc1Cl)N=C(CSCc1ccccc1)NS2(=O)=O` [Benzthiazide], in series [1], the LogP was 1.73.
As for `C=CCc1ccccc1OCC(O)CNC(C)C` (stereo not drawn) [Alprenolol], the “pKa(s) B = Base” value in series [1] is reported as “B 9.477”.
For the compound `CN(C)CC/C=C1/c2ccccc2Sc2ccc(Cl)cc21` [Chlorprothixene], in series [1], the LogP is given as 5.48 and the “pKa(s) B = Base” value was “B 9.52”.
Take `O=C(O)c1cccnc1Nc1cccc(C(F)(F)F)c1` [Niflumic Acid]: in series [1], the LogP is 3.88 and the “pKa(s) B = Base” value is recorded as 2.26.
`NS(=O)(=O)c1cc2c(cc1Cl)NC(C(Cl)Cl)NS2(=O)=O` (stereo not drawn) [Trichlormethiazide]: the LogP in series [1] is recorded as 0.97.
With `Clc1ccc(COC(Cn2ccnc2)c2ccc(Cl)cc2Cl)c(Cl)c1` (stereo not drawn) [Miconazole], the “pKa(s) B = Base” value in series [1] is “B 6.316”.
On to `Oc1cccc2ccccc12` [Form 1-naphthol, 1-naphthol], for which, in series [1], the “pKa(s) A = acid” value was “A 9.175”.
On to `CNCCC(Oc1ccc(C(F)(F)F)cc1)c1ccccc1` (stereo not drawn) [Fluoxetine], for which the “pKa(s) B = Base” value in series [1] is “B 10.09”.
For `Nc1ccc(S(=O)(=O)Nc2nccs2)cc1` [Sulfathiazole], in series [1], the LogP was 0.07, the “pKa(s) A = acid” value is 7.168 and the “pKa(s) B = Base” value was “B 2.124 A”.
